Reference: patent US10449245B2 (priority 2014, dated 2019)
“And” between values parts separate entries of the source, which are not always exact repeats. Equal entries are not always repeated.

How the values were obtained:
HIV-1 [1] = assay: HIV transcription as cell-associated unspliced HIV-1 RNA in CD4+ T cells (digital droplet PCR), REDUC Part A; format: in vivo, human; details: romidepsin 5 mg/m^2 i.v. days 0, 7, 14; for CA US HIV RNA, Mean: mean of subjects
Procedure: Part A of the clinical study contained three phases. […] Second, a viral reactivation phase of 3 weeks (visit 2 to visit 7) consisting of one cycle of romidepsin infusions at a dosing of 5 mg/m^2 administered intravenously over a 4 hour period. De-escalation down to 2.5 mg/m^2 was planned in case of dose-limiting toxicity was observed. Romidepsin was infused on days 0, 7, and 14. Third, a post-activation phase of ˜9 weeks (visit 8 to visit 11) to assess the effect of romidepsin on the size of latent HIV-1I reservoir.
HIV transcription was measured as copies of cell-associated unspliced HIV-1 RNA/106 CD4+ T cells using digital droplet PCR. CD4+ T-cells were isolated from PBMCs using Miltenyi Biotec negative bead separation kit (CD4 T cell isolation, #130-096-533) as described with LD separation columns, lysed (Lysis buffer from Qiagen DNA/RNA extraction kit), and stored ad −80° C. until extraction of RNA and DNA (Allprep isolation kit, Qiagen). Reverse transcription, amplification and quantitation of cell-associated unspliced HIV RNA from HIV patients was performed as follows. In summary, HIV unspliced RNA was detected on the BioRad QX100 droplet digital platform using a defined primer/probe set and related to total cell input by quantitation of the IPO8 (Importin 8) and TBP (Tata Binding Protein) gene transcription. A mixture of 11.5 μl patient extracted mRNA in nuclease-free dH, 1 μl 10 mM dNTP U1240 (Promega), 0.5 μl 3 μg/μl Random hexamers (Applied Biosystems) and 0.5 μl of 0.5 μg/μl Oligo(dT)12-18 Primer (Invitrogen) was prepared, incubated at 65° C. for 5 min, and then immediately on ice for 5 min. First-strand cDNA production was performed by adding a mixture of 4.0 μl 5× First Strand Buffer (Invitrogen), 1.0 μl 0.1M DTT (Invitrogen), 0.5 μl RNAseOUT RNAse inhibitor (40 U/μl, Invitrogen), 1.0 μl Superscript III Reverse Transcriptase (200 U/μl, Invitrogen) for a total reaction volume of 20 μl and incubating at 42° C. for 45 min, then 80° C. for 15 min in a PCR machine. The reaction was held at 4° C. or on ice until performing the downstream assay. […] To adjust for the total cellular input in each sample, relative copy numbers were normalized to two human endogenous control genes TBP PL (VIC) assay ID: Hs00183533_m1 and IPO8 (FAM) assay ID: Hs00427620_m1 (TaqMan gene expression assay, LifeTechnologies, Denmark). All HIV RT samples were run in six replicates while the reference genes were assayed in duplicate. The PCR reaction mixture was loaded into the BioRad QX-100 emulsification device fractionating each sample into 20,000 nanoliter-sized droplets following the manufacturer's instructions. PCR cycling conditions were as follows: 95° C. for 10 min, followed by 40 cycles of a 30 second denaturation at 95° C. followed by a 59° C. extension for 60 seconds and a final 10 minutes at 98° C. After cycling droplets were subsequently read automatically by the QX100 droplet reader (BioRad) and the data was analyzed with the QuantaSoft™ analysis software (BioRad).

[2] = human, in vivo
Procedure: Part A of the clinical study contained three phases. First, a pre-treatment phase of 2-4 weeks (visit 1-visit 2a) to confirm the stability of the latent HIV-1 reservoir and determine baseline HIV-1 T lymphocyte specific immunity. Second, a viral reactivation phase of 3 weeks (visit 2 to visit 7) consisting of one cycle of romidepsin infusions at a dosing of 5 mg/m^2 administered intravenously over a 4 hour period. De-escalation down to 2.5 mg/m^2 was planned in case of dose-limiting toxicity was observed. Romidepsin was infused on days 0, 7, and 14. Third, a post-activation phase of ˜9 weeks (visit 8 to visit 11) to assess the effect of romidepsin on the size of latent HIV-1I reservoir.
The primary objective of this part of the study was to evaluate the safety and tolerability of romidepsin at a reduced dosing of 5 mg/m^2 in HIV-infected patients.
The primary endpoint of this part was safety and tolerability; evaluation as measured by adverse events (AE), adverse reactions (AR), serious adverse events (SAE), serious adverse reactions (SAR), serious unexpected adverse reactions (SUSAR).

HIV-1 [3] = assay: Plasma HIV-1 RNA by transcription mediated amplification (TMA) NAT screen, REDUC Part A; format: in vivo, human; details: for TMA assay, Percent positive: share of subjects positive; for TMA assay, Percent positive / TMA assay, presence of HIV RNA: romidepsin 5 mg/m^2 i.v. days 0, 7, 14; for TMA assay, presence of HIV RNA: individual subjects 1101, 1102, 1103, 1105, 1106, 1107 = c1-c6

## C/C=C1\NC(=O)[C@H]2CSSCC/C=C/[C@H](CC(=O)N[C@H](C(C)C)C(=O)N2)OC(=O)[C@H](C(C)C)NC1=O [romidepsin, (1S,4S,7Z,10S,16E,21R)-7-ethylidene-4,21-bis(1-methylethyl)-2-oxa-12,13-dithia-5,8,20,23-tetraazabicyclo[8.7.6]tricos-16-ene-3,6,9,19,22-pentone]
HIV-1 [1]; visit 10 (day 56)
  CA US HIV RNA, Mean: 13.8 HIV RNA copies/10^6 CD4+ T cel
HIV-1 [1]; visit 11 (day 84), individual subjects 1101, 1102, 1103, 1105, 1106, 1107 = c1-c6
  CA US HIV RNA: 22.0 HIV RNA copies/10^6 CD4+ T cel and 32.7 HIV RNA copies/10^6 CD4+ T cel and 11.2 HIV RNA copies/10^6 CD4+ T cel and 8.0 HIV RNA copies/10^6 CD4+ T cel and 35.1 HIV RNA copies/10^6 CD4+ T cel and 12.2 HIV RNA copies/10^6 CD4+ T cel
HIV-1 [1]; visit 11 (day 84)
  CA US HIV RNA, Mean: 20.2 HIV RNA copies/10^6 CD4+ T cel
[2]
  grade II AEs: Two
HIV-1 [3]; Visit 1 (day −21, pre-treatment)
  TMA assay, Percent positive: 50%
HIV-1 [3]; Visit 2A (day 0, pre-treatment)
  TMA assay, Percent positive: 50%
HIV-1 [3]; Visit 2B (day 0 + 4 h)
  TMA assay, Percent positive: 67%
HIV-1 [3]; Visit 3 (day 1)
  TMA assay, Percent positive: 83%
HIV-1 [3]; Visit 4 (day 3)
  TMA assay, Percent positive: 83%
HIV-1 [3]; Visit 5A (day 7)
  TMA assay, Percent positive: 50%
HIV-1 [3]; Visit 5B (day 7 + 4 h)
  TMA assay, Percent positive: 100%
HIV-1 [3]; Visit 6 (day 10)
  TMA assay, Percent positive: 100%
HIV-1 [3]; Visit 7A (day 14)
  TMA assay, Percent positive: 50%
HIV-1 [3]; Visit 7B (day 14 + 4 h)
  TMA assay, Percent positive: 67%
HIV-1 [3]; Visit 8 (day 17)
  TMA assay, Percent positive: 100%
HIV-1 [3]; Visit 9 (day 21)
  TMA assay, Percent positive: 33%
HIV-1 [3]; post-infusion time-points compared with baseline
  Plasma HIV-1 RNA detection by transcription-mediated amplification assay: detected more frequently
HIV-1 [3]; visit 1 (day −21, pre-treatment)
  TMA assay, presence of HIV RNA: 1 (3×) and 0 (3×)
HIV-1 [3]; visit 2A (day 0, pre-treatment)
  TMA assay, presence of HIV RNA: 1 (3×) and 0 (3×)
HIV-1 [3]; visit 2B (day 0 + 4 h)
  TMA assay, presence of HIV RNA: 1 (4×) and 0 (2×)
HIV-1 [3]; visit 3 (day 1)
  TMA assay, presence of HIV RNA: 1 (5×) and 0
HIV-1 [3]; visit 4 (day 3)
  TMA assay, presence of HIV RNA: 1 (5×) and 0
HIV-1 [3]; visit 5A (day 7)
  TMA assay, presence of HIV RNA: 1 (3×) and 0 (3×)
HIV-1 [3]; visit 5B (day 7 + 4 h)
  TMA assay, presence of HIV RNA: 1
HIV-1 [3]; visit 6 (day 10)
  TMA assay, presence of HIV RNA: 1
HIV-1 [3]; visit 7A (day 14)
  TMA assay, presence of HIV RNA: 1 (3×) and 0 (3×)
HIV-1 [3]; visit 7B (day 14 + 4 h)
  TMA assay, presence of HIV RNA: 1 (4×) and 0 (2×)
HIV-1 [3]; visit 8 (day 17)
  TMA assay, presence of HIV RNA: 1
HIV-1 [3]; visit 9 (day 21)
  TMA assay, presence of HIV RNA: 0 (4×) and 1 (2×)
